Assay results taken from patent US20120165339A1, “CYCLOPROPANE DERIVATIVES” (EISAI R&D MANAGEMENT CO., LTD., priority 2010, published 2012).
Where two headings read alike, the source gives them in different places.

What was measured:
mice (C57BL/6NCrlCrLj) = assay: Sleep experiment (EEG/EMG) in mice; assay type: in vivo; settings: oral administration, accumulated sleep over 3 hours, difference to vehicle-administration day
Experimental: As a method for measuring the influence of the present compound on sleep time, electroencephalogram (EEG) and electromyogram (EMG) measurements were carried out in mice (C57BL/6NCrlCrLj).
In order to measure brain waves and muscle signals, EEG and EMG electrode implantation was performed on individual mice, and the mice were then housed in a state in which they could freely move and habituate in individual recording cages for 1 week or longer. Thereafter, amplified EEG and EMG signals were digitally recorded.
Mice received either oral administration of vehicle or test compound in vehicle, after which sleep/wake behavior of mice was recorded for 3 hours.
For sleep analysis, automatic analysis software from Kissei Comtec Co., Ltd. was used to analyze EEG frequency and EMG activity signals in detail and to determine sleep and wake states. Thereafter, accumulated sleeping time over 3 hours was calculated.
The effect of the compound to increase sleep time was evaluated as the difference between sleeping time on the vehicle-administration day and the sleep time on the subsequent drug-administration day.

OX1 [1] = molecular target: T1, OX1 (Homo sapiens, UniProt O43613); assay: Orexin-receptor binding ability, [125I]-OX-A, CHO cell membranes expressing OX1; set-up: expressed in transfected cells; host or cells: CHO cells (membrane preparation); settings: membranes of recombinant CHO cells, 0.2 nM [125I]-OX-A tracer; read-out: OX1 (IC50)
T1 sequence (O43613 1-425): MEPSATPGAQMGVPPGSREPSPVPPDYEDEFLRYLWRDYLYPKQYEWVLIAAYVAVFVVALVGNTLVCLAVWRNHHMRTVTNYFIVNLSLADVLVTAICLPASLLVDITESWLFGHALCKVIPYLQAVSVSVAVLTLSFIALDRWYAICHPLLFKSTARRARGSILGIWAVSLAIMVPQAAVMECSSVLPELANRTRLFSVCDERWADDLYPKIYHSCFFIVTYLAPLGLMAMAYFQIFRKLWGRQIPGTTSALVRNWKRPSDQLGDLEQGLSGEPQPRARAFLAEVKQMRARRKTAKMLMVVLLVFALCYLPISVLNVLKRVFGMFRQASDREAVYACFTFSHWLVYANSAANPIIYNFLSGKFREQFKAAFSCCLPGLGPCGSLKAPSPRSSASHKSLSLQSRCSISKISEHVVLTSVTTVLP
How it was run: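 Buffer was 25 mM HEPES pH 7.5, 1 mM CaCl2, 4.5 mM MgCl2, 0.5% BSA, 0.1% sodium azide, 0.05% Tween-20 and 0.2% DMSO. Bound radioactivity was counted by scintillation, and IC50 values were reported.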

OX2 [2] = molecular target: T2, OX2 (Homo sapiens, UniProt O43614); assay: Orexin-receptor binding ability, [125I]-OX-A, CHO cell membranes expressing OX2; set-up: expressed in transfected cells; host or cells: CHO cells (membrane preparation)
T2 sequence (O43614 1-444): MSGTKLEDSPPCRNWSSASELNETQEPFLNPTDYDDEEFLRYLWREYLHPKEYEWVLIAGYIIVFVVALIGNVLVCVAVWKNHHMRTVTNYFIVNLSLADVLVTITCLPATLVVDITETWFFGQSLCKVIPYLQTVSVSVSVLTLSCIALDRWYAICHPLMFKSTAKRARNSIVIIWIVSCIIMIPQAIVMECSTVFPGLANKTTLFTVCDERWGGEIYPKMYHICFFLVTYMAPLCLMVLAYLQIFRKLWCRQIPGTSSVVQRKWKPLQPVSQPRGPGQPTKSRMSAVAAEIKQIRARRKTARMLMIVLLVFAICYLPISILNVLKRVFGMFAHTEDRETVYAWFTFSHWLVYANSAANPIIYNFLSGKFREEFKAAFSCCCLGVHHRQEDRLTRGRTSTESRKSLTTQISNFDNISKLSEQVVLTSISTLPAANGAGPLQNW
How it was run: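 Competition binding used membranes from recombinant CHO cells (5 μg protein/assay) with 0.2 nM [125I]-OX-A tracer and varied compound concentrations. Incubation was 30 min at room temperature in 25 mM HEPES pH 7.5 with CaCl2, MgCl2, 0.5% BSA, 0.05% Tween-20 and 0.2% DMSO. Bound radioactivity was counted by scintillation after one wash, giving IC50 (nM).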

OX1 [3] = molecular target: T1, OX1; assay: Antagonism PLAP reporter assay, HEK-293 cells expressing human OX1; assay type: cell-based; set-up: expressed in transfected cells; host or cells: HEK-293 cell line, expression vector pBabeCLIH; settings: HEK-293, 1 nM human OX-A; IC50 converted to Ki by Cheng-Prusoff equation
How it was run: (§1)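 HEK-293 cells expressing human OX1 or OX2 preincubated 1 h at room temperature with compound, then stimulated with 1 nM orexin-A plus 300 nM forskolin for about 18-24 h at 37 °C. Secreted PLAP read by luminescence; IC50 converted to Ki via Cheng-Prusoff using measured OX-A Kd.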

OX2 [4] = molecular target: T2, OX2; assay: Antagonism PLAP reporter assay, HEK-293 cells expressing human OX2; assay type: cell-based; set-up: expressed in transfected cells; host or cells: HEK-293 cell line, expression vector pBabeCLIH; settings: HEK-293, 1 nM human OX-A; IC50 converted to Ki by Cheng-Prusoff equation
How it was run: as §1

[5] = membranes of recombinant CHO cells, 0.2 nM [125I]-OX-A tracer, read-out: OX2 (IC50)

Question: `COc1ccc(OC[C@@]2(c3ccccc3)C[C@H]2C(=O)Nc2ccc(C#N)cn2)cc1OC` [Example 4, (1R,2S)—N-(5-cyanopyridin-2-yl)-2-[(3,4-dimethoxyphenyl)oxymethyl]-2-phenylcyclopropanecarboxamide] was tested. Which “Sleep extended time (min/3 hrs)” value (mice (C57BL/6NCrlCrLj)) did it give?
Answer: 57 min/3 hrs

Question: And the IC50 (OX1 [1])?
Answer: 129 nM

Question: And the IC50 (OX2 [2]; [5])?
Answer: 13 nM

Question: What about the Ki (OX1 [3]) of the same molecule?
Answer: 65.2 nM

Question: And the Ki (OX2 [4])?
Answer: 5.1 nM

Question: How did the IC50 (OX1 [1]) turn out when `CCn1cc(OCC2(c3ccccc3)CC2C(=O)Nc2ccc(Cl)cn2)cn1` (stereo not drawn) [Example 81] was run?
Answer: 163 nM

Question: And the IC50 (OX2 [2]; [5])?
Answer: 33 nM

Question: And the Ki (OX1 [3])?
Answer: > 467 nM

Question: And the Ki (OX2 [4])?
Answer: 78 nM

Question: Which IC50 (OX1 [1]) does the source give for `COc1ccc(CCC2(c3ccccc3)CC2C(=O)Nc2ccccn2)cc1OC` (stereo not drawn) [Example 99, N-(pyridin-2-yl)-2-[2-(3,4-dimethoxyphenyl)ethyl]-2-phenylcyclopropanecarboxamide] here?
Answer: 632 nM

Question: What about the IC50 (OX2 [2]; [5]) of the same molecule?
Answer: 43 nM

Question: And the Ki (OX1 [3])?
Answer: > 816 nM

Question: What about the Ki (OX2 [4]) of the same molecule?
Answer: 154 nM

Question: How did the IC50 (OX1 [1]) turn out when `CCc1nc(C)c(CC[C@@]2(c3ccccc3)C[C@H]2C(=O)Nc2ccc(C#N)cn2)s1` [Example 100, (1R,2R)—N-(5-cyanopyridin-2-yl)-2-[2-(2-ethyl-4-methyl-1,3-thiazol-5-yl)ethyl]-2-phenylcyclopropanecarboxamide] was run?
Answer: 58 nM

Question: What about the IC50 (OX2 [2]; [5]) of the same molecule?
Answer: 9 nM

Question: And the Ki (OX1 [3])?
Answer: 47.5 nM

Question: What about the Ki (OX2 [4]) of the same molecule?
Answer: 5.2 nM

Question: For `CCc1nc(Cl)cn1CCC1(c2ccccc2)CC1C(=O)Nc1ccc(F)cn1` (stereo not drawn) [Example 113], which IC50 (OX1 [1]) is on record?
Answer: 944 nM

Question: And the IC50 (OX2 [2]; [5])?
Answer: 49 nM

Question: And the Ki (OX1 [3])?
Answer: > 467 nM

Question: What about the Ki (OX2 [4]) of the same molecule?
Answer: 62.7 nM

Question: What does the source list for `CCc1nc(Cl)cn1CCC1(c2ccccc2)CC1C(=O)Nc1ccc(C#N)cn1` (stereo not drawn) [Example 114]?
Answer: IC50 (OX1 [1]): 868 nM; IC50 (OX2 [2]; [5]): 49 nM; Ki (OX1 [3]): > 467 nM; Ki (OX2 [4]): 210 nM

Question: What does the source list for `Cc1nc(C(F)(F)F)nn1CC[C@@]1(c2ccccc2)C[C@H]1C(=O)Nc1ccc(F)cn1` [Example 121]?
Answer: Sleep extended time (min/3 hrs) (mice (C57BL/6NCrlCrLj)): 21.3 min/3 hrs; IC50 (OX1 [1]): 166 nM; IC50 (OX2 [2]; [5]): 19 nM; Ki (OX1 [3]): 406 nM; Ki (OX2 [4]): 31.4 nM

Question: Which results are given for `Cc1nc(C(F)(F)F)nn1CC[C@@]1(c2ccccc2)C[C@H]1C(=O)Nc1ccc(Cl)cn1` [Example 122]?
Answer: Sleep extended time (min/3 hrs) (mice (C57BL/6NCrlCrLj)): 21.8 min/3 hrs; IC50 (OX1 [1]): 98 nM; IC50 (OX2 [2]; [5]): 3 nM; Ki (OX1 [3]): 140 nM; Ki (OX2 [4]): 10 nM

Question: For `COc1ccc(S(=O)(=O)CC2(c3ccccc3)CC2C(=O)Nc2ccc(Cl)cn2)cc1OC` (stereo not drawn) [Example 134, N-(5-chloropyridin-2-yl)-2-[(3,4-dimethoxyphenyl)sulfonylmethyl]-2-phenylcyclopropanecarboxamide], which IC50 (OX1 [1]) is on record?
Answer: 261 nM

Question: And the IC50 (OX2 [2])?
Answer: 79 nM

Question: What about the Ki (OX1 [3]) of the same molecule?
Answer: > 467 nM

Question: What about the Ki (OX2 [4]) of the same molecule?
Answer: 268 nM
